Assay results as given in PubChem BioAssay AID1332 (Southern Research Institute, 2008).
≈ marks a conversion by molar mass, not a printed value.

Test system: M. tuberculosis H37Rv growth inhibition
Assay: Confirmatory growth inhibition assay, mycobacterium tuberculosis h37rv, with cytotoxicity (AID 1332);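 note: bacteria incubated 7 days before adding Alamar blue readout reagent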

Row | SMILES | IC90
1 | CN(C)CCCN1c2ccccc2Sc2ccc(Cl)cc21 | 7.45 µg/mL (≈ 23.4 µM)
2 | CC/C(=C(\c1ccccc1)c1ccc(OCCN(C)C)cc1)c1ccccc1 | 13.6 µg/mL (≈ 36.7 µM)
3 | CSc1ccc2c(c1)N(CCC1CCCCN1C)c1ccccc1S2 (stereo not given) | 3.01 µg/mL (≈ 8.13 µM)
4 | CCN(CC)CCNc1ccc(CO)c2sc3ccccc3c(=O)c12 | 19.4 µg/mL (≈ 54.5 µM)
5 | CC(C)COCC(CN(Cc1ccccc1)c1ccccc1)N1CCCC1 (stereo not given) | 11.3 µg/mL (≈ 30.7 µM)
6 | CN1CCN(CCCN2c3ccccc3Sc3ccc(Cl)cc32)CC1 | 8.01 µg/mL (≈ 21.4 µM)
7 | CC(C)N1CCN(c2ccc(OC[C@H]3CO[C@](Cn4cncn4)(c4ccc(Cl)cc4Cl)O3)cc2)CC1 | 7.54 µg/mL (≈ 14.2 µM)
8 | CC[C@H]1OC(=O)[C@H](C)[C@@H](OC2C[C@@](C)(OC)[C@@H](O)[C@H](C)O2)[C@H](C)[C@@H](O[C@@H]2O[C@H](C)C[C@H](N(C)C)[C@H]2O)[C@](C)(O)C[C@@H](C)/C(=N\OCOCCOC)[C@H](C)[C@@H](O)[C@]1(C)O (stereo not given in full) | 11.5 µg/mL (≈ 13.7 µM)
9 | CN1CCN(CCCN2c3ccccc3Sc3ccc(C(F)(F)F)cc32)CC1 | 2.77 µg/mL (≈ 6.8 µM)
10 | CCN(CC)CCOc1ccc(/C(=C(/Cl)c2ccccc2)c2ccccc2)cc1 | 6.13 µg/mL (≈ 15.1 µM)
11 | COc1cc2cc3c4cc(OC)c(OC)cc4cc[n+]3c(C)c2cc1OC | 2.13 µg/mL
12 | OCCN1CCN(CCCN2c3ccccc3Sc3ccc(C(F)(F)F)cc32)CC1 | 7.59 µg/mL (≈ 17.3 µM)
13 | C=CCOC(Cn1ccnc1)c1ccc(Cl)cc1Cl (stereo not given) | 2 µg/mL (≈ 6.73 µM)
14 | Cc1cccc(C)c1NC(=O)CN1CCN(CCCC(c2ccc(F)cc2)c2ccc(F)cc2)CC1 | 5.27 µg/mL (≈ 10.7 µM)
15 | CC1=CC(=O)c2ccccc2C1=O | 5.38 µg/mL (≈ 31.2 µM)
16 | CC(NCCC(c1ccccc1)c1ccccc1)c1ccccc1 (stereo not given) | 8.02 µg/mL (≈ 25.4 µM)
17 | COc1ccc(CCN2CCC(Nc3nc4ccccc4n3Cc3ccc(F)cc3)CC2)cc1 | 6.79 µg/mL (≈ 14.8 µM)
18 | Nc1ccc(S(=O)(=O)Nc2nccs2)cc1 | 1.3 µg/mL (≈ 5.08 µM)
19 | C[n+]1cc2c3c(ccc2c2ccc4cc5c(cc4c21)OCO5)OCO3 | 7.62 µg/mL
20 | Cc1cccc(CN2CCN(C(c3ccccc3)c3ccc(Cl)cc3)CC2)c1 (stereo not given) | 7.72 µg/mL (≈ 19.7 µM)
21 | O=C1C=CC(=O)c2c1ccc1c2ccc2ccccc21 | 2.17 µg/mL (≈ 8.42 µM)
22 | Fc1ccc(C(c2ccc(F)cc2)N2CCN(C/C=C/c3ccccc3)CC2)cc1 | 6.62 µg/mL (≈ 16.4 µM)
23 | Clc1ccccc1C(c1ccccc1)(c1ccccc1)n1ccnc1 | 5.36 µg/mL (≈ 15.6 µM)
24 | CO[C@H]1/C=C/O[C@@]2(C)Oc3c(C)c(O)c4c(O)c(c(/C=N/N5CCN(C)CC5)c(O)c4c3C2=O)NC(=O)/C(C)=C\C=C\[C@H](C)[C@H](O)[C@@H](C)[C@@H](O)[C@@H](C)[C@H](OC(C)=O)[C@@H]1C | 0.04 µg/mL (≈ 0.0486 µM)
25 | C=C(NC(=O)C(=C)NC(=O)c1csc(C2=N[C@H]3c4csc(n4)[C@H]4NC(=O)c5csc(n5)[C@H]([C@@](C)(O)[C@@H](C)O)NC(=O)[C@H]5CSC(=N5)/C(=C\C)NC(=O)[C@H]([C@@H](C)O)NC(=O)c5csc(n5)[C@]3(CC2)NC(=O)[C@H](C)NC(=O)C(=C)NC(=O)[C@H](C)NC(=O)[C@H](C(C)CC)N[C@@H]2C=Cc3c([C@H](C)O)cc(nc3[C@H]2O)C(=O)O[C@@H]4C)n1)C(N)=O (stereo not given in full) | 0.357 µg/mL (≈ 0.214 µM)
